This is an account of results in publication PMC7880572 (ACS Chemical Neuroscience, 2021).

For orientation: IC50 means the concentration that inhibits the measured activity by half. By inhibition is commonly meant how much of the control response was suppressed. A word on the Papp: it is a coefficient for how fast a substance crosses the barrier.

Where two headings read alike, the source gives them in different places.

For series [1], the target named is T1, eeAChE (AChE from electric eel) (Electrophorus electricus, UniProt O42275).
T1 construct: purchased Sigma-Aldrich, Milan, Italy
Put plainly: biochemical. As to conditions: mean ± SEM, n = 3.

The target of another series is PHF6 tau sequence (Homo sapiens, UniProt P10636). Briefly: Inhibition of PHF6 aggregation (ThT fluorescence). The following applies: for inhibition at 10 µM: read-out: PHF6 aggregation inhibition.
Series [2] deals with T2, Aβ40 (Homo sapiens, UniProt P05067).
T2 construct: samples of Aβ40 (30 μM) were coincubated for 2 h at 25 °C with test molecules; purchased EzBiolab, Carmel, IN, USA
Put plainly: Inhibition of self-induced Aβ40 aggregation (ThT fluorescence, HFIP). In kind it is biochemical. The following applies: Aβ40 30 μM, 2 h at 25 °C, PBS 2% HFIP; mean ± SEM, n = 3; read-out: Aβ40 aggr IC50. Here is the method:
In vitro inhibition of Aβ40 aggregation was assessed following a previously reported thioflavin T (ThT) fluorescence-based method involving the use of hexafluoroisopropanol (HFIP) as aggregation enhancer. […].
In vitro inhibition assay of Aβ40 aggregation has been previously reported[41] and adapted to a 96-well plate platform.
(§1) After incubation in 96-well black, nonbinding microplates (Greiner Bio-One GmbH, Frickenhausen, Germany), thioflavin T (25 μM) was added and fluorimetric reads (ex 440, em 485 nm) were performed in a multiplate reader Infinite M1000 Pro (Tecan, Cernusco sul Naviglio, Italy). Experiments were run in triplicate. Results were expressed by statistical analysis while IC50 values were obtained by nonlinear regression using Prism software (GraphPad Prism version 5.00 for Windows, GraphPad Software, San Diego, CA, USA).

The next series concerns the target T3, Aβ42 (Homo sapiens, UniProt P05067).
T3 construct: purchased EzBiolab, Carmel, IN, USA
Briefly: Inhibition of Aβ42 fibrillation by ThT fluorescence assay. In kind it is biochemical. As to conditions: Aβ42 30 μM, 37 °C, 48 h; for inhibition of Aβ42 aggregation (activity profile): 100 and 5 μM. On the procedure: Its high propensity to self-aggregate allows a fast execution of aggregation assays without the need of aggregation enhancers as for Aβ40.
Quercetin (QUR) was used as reference compound.
as §1

A further series deals with cerebellar granule cells. Briefly: In vitro cytotoxicity (MTT). In kind it is cell-based. The following applies: CGCs, compound 10 μM, 48 h, mean ± SEM. On the procedure: . […] For a more meaningful assessment of the value of the present compounds, the issue of their toxicity, in comparison to established drugs for AD, should deserve further investigation.
Cerebellar granule cells were prepared from 8-day-old Sprague Dawley rats as described previously.[66] Cells were studied from the 6th to the 12th day in vitro. The experimental procedures and care of the animals were performed in compliance with the Directive of the EU Parliament and Council of September 22, 2010 (2010/63/EU) and were approved by the Italian Ministry of Health (COD. 75F11.N.6DX) in accordance with D.M. 116/1992. All efforts were made in order to minimize animal suffering and the number of animals necessary to obtain reliable results.
[…]. Cells were maintained in 5% CO2 at 37 °C. The cell viability was assessed by the MTT assay 48 h after the treatment. […]. The survival rates of viable cells were calculated by comparing the optical absorbance of treated samples with that of the untreated controls. All experiments were repeated at least three times independently, and data are expressed as the mean ± SEM.

The target of another series is T4, R3 tau sequence (Homo sapiens, UniProt P10636).
T4 construct: The 30-amino acid peptide (V306-Q336) R3; purchased Bachem, Bubendorf, Switzerland
Put plainly: Inhibition of R3 aggregation (ThT fluorescence). In kind it is biochemical. As to conditions: R3 25 μM, 4 h at 37 °C; mean of two independent experiments. The text has this: . The 30-amino acid peptide (V306-Q336) R3 is a high-repeated domain containing the PHF6 sequence and present in all tau isoforms.[62] Its high propensity to self-aggregate in buffered solutions, even in the absence of aggregation inducers such as heparin,[63] makes R3 a reliable surrogate of full-length tau protein for in vitro experiments. In our assay protocol, the commercial R3 peptide was pretreated with 1,1,1-trifluoroethanol (TFE) overnight in order to dissolve any preformed aggregate and reestablish the random coil arrangement, then diluted in PBS at the test concentration of 25 μM.
A stock solution of 1.5 mM R3 (trifluoroacetate salt; Bachem, Bubendorf, Switzerland) was prepared in TFE and left overnight at room temperature. […] . […] IC50 values were calculated by means of Prism as the mean of two independent experiments.

Series [3] deals with T5, esBChE (BChE from equine serum) (Equus caballus, UniProt P81908).
T5 construct: BChE from horse serum (13 U/mL); purchased Sigma-Aldrich, Milan, Italy; host or cells: horse serum
Briefly: biochemical. As to conditions: mean ± SEM, n = 3.

The next series can be described thus: in vitro. The following applies: PAMPA, pH 7.4. For orientation: The PAMPA barrier holds no transporters, so it reflects passive diffusion.
Series [4] concerns the target T6, MAO B (Homo sapiens, UniProt P27338).
T6 construct: purchased Sigma-Aldrich
T6 sequence (P27338 1-520): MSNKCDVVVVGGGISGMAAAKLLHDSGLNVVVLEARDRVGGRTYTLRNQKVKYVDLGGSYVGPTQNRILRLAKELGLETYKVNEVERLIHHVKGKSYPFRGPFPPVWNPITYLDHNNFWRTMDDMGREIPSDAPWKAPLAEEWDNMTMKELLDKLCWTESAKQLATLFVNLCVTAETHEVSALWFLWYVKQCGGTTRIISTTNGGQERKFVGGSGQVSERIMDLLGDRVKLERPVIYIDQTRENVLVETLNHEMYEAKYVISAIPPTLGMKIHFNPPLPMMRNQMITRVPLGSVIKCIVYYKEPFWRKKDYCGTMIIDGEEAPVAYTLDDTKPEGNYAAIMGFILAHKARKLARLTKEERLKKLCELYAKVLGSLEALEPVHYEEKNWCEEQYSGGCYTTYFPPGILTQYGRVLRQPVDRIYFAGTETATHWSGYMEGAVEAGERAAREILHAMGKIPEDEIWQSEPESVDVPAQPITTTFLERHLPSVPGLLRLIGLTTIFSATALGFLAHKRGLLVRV
Briefly: MAO B inhibition (fluorimetric kynuramine assay, inhibition kinetics). As to conditions: for IC50: mean ± SEM, n = 3. In kind it is biochemical.

The conditions of series [5]: based on the PAMPA-BBB classification range from Di et al.
The next series addresses T7, hMAO A (Homo sapiens, UniProt P21397).
T7 construct: purchased Sigma-Aldrich
T7 sequence (P21397 1-527): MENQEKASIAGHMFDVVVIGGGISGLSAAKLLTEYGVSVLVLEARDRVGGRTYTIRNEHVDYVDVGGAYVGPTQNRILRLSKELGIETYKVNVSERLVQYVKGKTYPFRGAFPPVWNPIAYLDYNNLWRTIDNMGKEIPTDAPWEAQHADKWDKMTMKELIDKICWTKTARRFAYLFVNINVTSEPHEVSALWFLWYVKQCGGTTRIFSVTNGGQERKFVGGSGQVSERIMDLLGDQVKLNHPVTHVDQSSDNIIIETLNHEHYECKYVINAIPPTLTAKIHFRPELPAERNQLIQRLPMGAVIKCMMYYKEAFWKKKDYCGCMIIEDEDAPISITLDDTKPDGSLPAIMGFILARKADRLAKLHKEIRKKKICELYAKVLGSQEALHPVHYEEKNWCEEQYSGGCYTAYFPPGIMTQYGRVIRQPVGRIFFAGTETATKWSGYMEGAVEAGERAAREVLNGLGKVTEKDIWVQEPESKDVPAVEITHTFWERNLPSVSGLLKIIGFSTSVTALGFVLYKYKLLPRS
Put plainly: MAO A inhibition (fluorimetric kynuramine assay). In kind it is biochemical. The following applies: mean ± SEM, n = 3.

The target in series [6] is T2, Aβ40. Details: method as in PMID 25924599. As to conditions: first series; cited from earlier work.
The subject of a further series is BChE. Details: method as in PMID 25924599. As to conditions: first series; cited from earlier work.
The conditions of series [7]: literature reported PAMPA-BBB permeability; ref 1 (Di et al., 2003); cited from earlier work.
The subject of a further series is AChE. Details: method as in PMID 25924599. As to conditions: first series; cited from earlier work.
Series [8] concerns the target T6, MAO B. Briefly: MAO B kynuramine assay in spectrophotometric mode (4-hydroxyquinoline absorbance at 316 nm), incl. time course. In kind it is biochemical.

T5 sequence (P81908 whole entry): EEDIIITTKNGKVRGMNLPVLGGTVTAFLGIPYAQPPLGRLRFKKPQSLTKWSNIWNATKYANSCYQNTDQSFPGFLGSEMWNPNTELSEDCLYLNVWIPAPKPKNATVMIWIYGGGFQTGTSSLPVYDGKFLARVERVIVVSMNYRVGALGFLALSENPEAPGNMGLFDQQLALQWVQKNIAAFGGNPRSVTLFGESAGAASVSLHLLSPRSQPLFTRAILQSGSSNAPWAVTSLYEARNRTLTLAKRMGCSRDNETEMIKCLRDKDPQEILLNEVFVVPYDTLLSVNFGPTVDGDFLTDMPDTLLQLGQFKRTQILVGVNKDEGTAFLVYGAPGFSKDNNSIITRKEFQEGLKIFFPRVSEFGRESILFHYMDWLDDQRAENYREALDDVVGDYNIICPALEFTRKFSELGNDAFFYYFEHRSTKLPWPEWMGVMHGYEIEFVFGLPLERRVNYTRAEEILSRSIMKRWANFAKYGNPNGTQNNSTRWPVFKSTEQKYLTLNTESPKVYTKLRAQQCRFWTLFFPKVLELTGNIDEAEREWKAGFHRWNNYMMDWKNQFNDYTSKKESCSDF
T1 sequence (O42275 24-633): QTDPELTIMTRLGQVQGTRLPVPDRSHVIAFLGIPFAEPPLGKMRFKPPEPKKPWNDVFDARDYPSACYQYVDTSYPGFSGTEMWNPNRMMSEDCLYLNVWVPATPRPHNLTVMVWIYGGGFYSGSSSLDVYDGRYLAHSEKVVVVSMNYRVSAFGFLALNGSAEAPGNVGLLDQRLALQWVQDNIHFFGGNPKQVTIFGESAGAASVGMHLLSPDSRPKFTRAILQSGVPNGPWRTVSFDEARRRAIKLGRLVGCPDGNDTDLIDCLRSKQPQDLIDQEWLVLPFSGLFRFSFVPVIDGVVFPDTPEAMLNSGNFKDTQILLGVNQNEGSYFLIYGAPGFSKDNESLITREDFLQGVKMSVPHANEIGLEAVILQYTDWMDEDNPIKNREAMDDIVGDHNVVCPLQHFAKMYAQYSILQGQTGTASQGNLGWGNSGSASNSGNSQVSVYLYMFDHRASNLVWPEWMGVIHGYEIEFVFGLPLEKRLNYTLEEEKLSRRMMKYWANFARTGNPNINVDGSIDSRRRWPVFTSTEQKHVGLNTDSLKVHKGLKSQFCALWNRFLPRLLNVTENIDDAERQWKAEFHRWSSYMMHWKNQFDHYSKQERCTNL
T2 sequence (P05067 672-711 limits assumed): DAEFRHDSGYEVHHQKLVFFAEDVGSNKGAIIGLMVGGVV
T3 sequence (P05067 672-713 limits assumed): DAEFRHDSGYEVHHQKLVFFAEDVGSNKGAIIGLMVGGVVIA
T4 sequence (P10636 623-653 limits assumed): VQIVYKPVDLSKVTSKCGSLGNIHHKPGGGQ

`O=C1c2ccccc2C(=O)c2c(NCCc3ccccc3)cccc21` [Compound 11, 1-(Phenethylamino)-9,10-anthraquinone]: the IC50 stood at 7.3 ± 0.7 µM in series [1]; 1.78 ± 0.23 µM against PHF6 tau sequence; 2.1 ± 0.2 µM at Aβ40 [2]; 0.36 ± 0.02 µM at R3 tau sequence; 1.7 ± 0.3 µM in series [3]; 0.57 ± 0.02 µM against MAO B [4]. Half-maximal inhibition on hMAO A (IC50) required 3.1 ± 0.3 µM. Besides, the inhibition at 10 µM at PHF6 tau sequence is over 95%. The “inhibition of Aβ42 aggregation (activity profile)” value at Aβ42 was “best activity profile”. Further, the “cell viability vs control (%)” value in the series on cerebellar granule cells was determined as 85 ± 15%. The molecule also registered a Papp at 16 h in “in vitro” of 24.7 ± 2.2 ×10⁻⁶ cm/s. The CNS prediction result in series [5] is listed as “CNS+”.
For the molecule `O=C1C(Cl)=C(NCCCSC[C@@H]2CCCN3CCCC[C@H]23)C(=O)c2ccccc21` [VII], the IC50 at Aβ40 [6] is 61 µM; in the series with BChE, 4.1 µM.
In the case of `O=C1Nc2ccc(Cl)cc2C(c2ccccc2)=NC1O` (stereo not drawn) [Oxazepam], in [7], the “Pe,rep” value is listed as 10 10-6 cm/s. Moreover, the Papp in “in vitro” stood at 9.1 ×10⁻⁶ cm/s.
Consider `O=C1c2ccccc2C(=O)c2c(NC[C@@H]3CCCN4CCCC[C@H]34)cccc21` [IX], for which the results for the IC50 with AChE and at Aβ40 [6] were 0.84 µM and 6.4 µM, respectively.
For the molecule `Cc1nnc2n1-c1ccc(Cl)cc1C(c1ccccc1)=NC2` [Alprazolam], in series [7], the “Pe,rep” value is given as 5.4 10-6 cm/s. In addition, the Papp in “in vitro” was 4.8 ×10⁻⁶ cm/s.
Take `CCN(CC)CCCNc1cccc2c1C(=O)c1ccccc1C2=O` [XIII]: the IC50 at Aβ40 [6] was 61 µM.
With `O=C1C(Cl)=C(NCc2ccccc2)C(=O)c2ccccc21` [Compound 2], the IC50 in [1] is 9.2 ± 0.6 µM; against MAO B [8] (absorbance of 4-hydroxyquinoline at 316 nm), 0.018 µM; on Aβ40 [2], 3.2 ± 0.8 µM; against MAO B [4] it was 0.0077 ± 0.0013 µM; against hMAO A, 3.6 ± 0.3 µM. In addition, the inhibition at 10 µM on PHF6 tau sequence amounted to 91%; in series [3] it was 26%. Moreover, on MAO B [8] (10 nM inhibitor, absorption of 4-hydroxyquinoline at 316 nm), the “MAO B enzymatic activity in time course” value was “still present even after 3 h”. In addition, at Aβ42 (lower concentration used (5 μM)), the “inhibition of Aβ42 aggregation” value is “strong inhibitor”. Besides, the “cell viability vs control (%)” value with cerebellar granule cells is 89 ± 14%. The same molecule returned a Papp at 16 h in the series “in vitro” of 28.4 ± 2.1 ×10⁻⁶ cm/s. Moreover, at MAO B [4] (coincubation up to 2 h vs 5 min), the “increase of Ki for higher coincubation times” value is “about 20 fold”. Moreover, the “MAO B inhibition mechanism” value on MAO B [4] (coincubation with enzyme limited to 5 min) was “competitive inhibition”; at MAO B [4] (higher coincubation times (up to 2 h)) it was “noncompetitive”. Besides, the “selectivity MAO B versus MAO A” value at MAO B [4] (ratio of inhibitory activities) is reported as 473 fold. The CNS prediction result in [5] was “CNS+”.
Turning to `O=C1C(Cl)=C(NCCc2ccccc2)C(=O)c2ccccc21` [Compound 3], the IC50 in series [1] is 7.9 ± 0.8 µM; against PHF6 tau sequence, 4.96 ± 0.75 µM; at Aβ40 [2], 4.4 ± 0.3 µM; against R3 tau sequence, 1.19 ± 0.44 µM; at MAO B [4] it was 0.031 ± 0.001 µM. The values for the inhibition at 10 µM (on PHF6 tau sequence; in series [3]; against hMAO A) were over 95%, 24% and 41%, respectively.
Turning to `O=C1c2ccccc2C(=O)c2c(NCCCc3ccccc3)cccc21` [Compound 12, 1-[(3-Phenylpropryl)amino]-9,10-anthraquinone], the IC50 in [1] was 7.84 ± 0.03 µM; on Aβ40 [2], 1.9 ± 0.3 µM; in series [3], 8.2 ± 0.4 µM; on MAO B [4], 0.24 ± 0.05 µM. Besides, the “inhibition of Aβ42 aggregation (activity profile)” value at Aβ42 is on record as “best activity profile”. Further, in the series on cerebellar granule cells, the “cell viability vs control (%)” value was 77 ± 12%. This molecule showed an apparent permeability (Papp) at 16 h in the series “in vitro” of 22 ± 1.9 ×10⁻⁶ cm/s. Further, the CNS prediction entry in series [5] is recorded as “CNS+”. At hMAO A, the inhibition at 10 µM was determined as 50%.
